Experimental data: patent US10300067B2, “Tetrahydropyridopyrimidine compound or salt thereof” (TAIHO PHARMACEUTICAL CO., LTD., priority 2014, dated 2019)

Assays:
[1] = target: human androgen receptor (Homo sapiens (Human), UniProt P10275); test: Antagonist activity for AR (pMMTV-luc reporter transcription activity in transfected COS-7 cells, DHT 1 nmol/L); format: cell-based; conditions: 50% transcription activity inhibition concentration; COS-7 cells with pMMTV-luc and pEX-hAR, DHT 1 nmol/L, 24 hours
Chain of human androgen receptor (P10275 whole entry): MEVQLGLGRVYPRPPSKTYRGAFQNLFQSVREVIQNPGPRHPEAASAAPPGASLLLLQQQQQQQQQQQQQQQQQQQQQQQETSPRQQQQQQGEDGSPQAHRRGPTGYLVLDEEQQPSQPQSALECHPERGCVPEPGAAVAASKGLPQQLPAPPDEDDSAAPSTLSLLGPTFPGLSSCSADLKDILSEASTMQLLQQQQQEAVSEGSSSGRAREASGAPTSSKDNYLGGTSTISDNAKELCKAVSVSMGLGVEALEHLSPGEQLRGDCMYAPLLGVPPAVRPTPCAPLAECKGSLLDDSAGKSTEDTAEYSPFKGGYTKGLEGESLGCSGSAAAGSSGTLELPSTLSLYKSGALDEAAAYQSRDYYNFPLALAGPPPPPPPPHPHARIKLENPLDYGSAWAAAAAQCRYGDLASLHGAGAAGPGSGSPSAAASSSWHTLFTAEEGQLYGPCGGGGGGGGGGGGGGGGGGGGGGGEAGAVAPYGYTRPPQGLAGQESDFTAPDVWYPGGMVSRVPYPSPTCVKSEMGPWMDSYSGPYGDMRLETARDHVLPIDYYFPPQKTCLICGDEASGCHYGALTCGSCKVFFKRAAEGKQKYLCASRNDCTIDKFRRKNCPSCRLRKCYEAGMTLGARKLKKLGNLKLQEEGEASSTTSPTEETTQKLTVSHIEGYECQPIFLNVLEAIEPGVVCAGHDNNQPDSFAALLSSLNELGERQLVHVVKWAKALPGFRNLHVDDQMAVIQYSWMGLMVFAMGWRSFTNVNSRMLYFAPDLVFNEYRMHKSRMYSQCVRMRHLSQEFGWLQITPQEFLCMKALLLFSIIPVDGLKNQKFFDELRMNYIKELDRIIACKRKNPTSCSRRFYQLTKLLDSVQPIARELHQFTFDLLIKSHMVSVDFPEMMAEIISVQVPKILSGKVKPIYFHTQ
Summary of the method: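 COS-7 cells co-transfected with pMMTV-luc reporter and CMV-driven human AR expression vector, cultured overnight in phenol red-free RPMI1640 with 10% charcoal-treated FBS. Antagonism measured against 1 nmol/L DHT by luciferase transcription activity.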

[2] = tested on: Human prostate cancer cells LNCaP; test: Androgen-dependent inhibitory activity on proliferation of prostate cancer cells; format: cell-based; conditions: 50% proliferation inhibition concentration, DHT 10 nmol/L, 72 hours, read-out: GI50 value
Procedure: Human prostate cancer cells LNCaP (Non-Patent Literature 5) having […] androgen receptor gene were seeded in a clear bottom 96 well microplate (BD) at 4.0×10^3/well with phenol red free RPMI1640 containing 5% DCC-FBS (hereinbelow, the medium is referred to as an evaluation medium), and then cultured overnight. The culture was added with the evaluation medium containing DHT (final concentration of DHT: 10 nmol/L) or the evaluation medium containing the compound of Examples or the compound of Comparative Examples (final concentration of the compound of Examples or the compound of Comparative Examples: 10, 30, 100, 300, 1000, 3000, 10000, or 30000 nmol/L), followed by culture for 72 hours. Then, the number of viable cells was counted. The number of viable cells was measured by using Cell Counting Kit-8 (DOJINDO LABORATORIES).

[3] = tested on: AR positive human prostate cancer cells VCaP; test: Agonist activity for AR (cell proliferation rate of VCaP cells); format: cell-based; conditions: 72 hours, 2 to 10000 nmol/L, more than 10% at any concentration = agonist activity for AR
Summary of the method: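 VCaP cells seeded at 1.5×10^4/well in phenol-red-free RPMI1640 with 5% DCC-FBS, then exposed 72 h to compound at 2–10000 nmol/L (9 concentrations). Viable cells counted by CellTiter-Glo; proliferation rate (%) relative to medium-only control, agonist activity called when >10% at any concentration.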

[4] = target: androgen receptor (Homo sapiens (Human), UniProt P10275, T878A); test: Activity of reducing expression level of androgen receptor (Western blotting of LNCaP cell lysate); format: cell-based; conditions: 48 hours
Chain of androgen receptor (P10275 whole entry T878A): as the sequence (P10275 whole entry) above, with T878A counted along it
Summary of the method: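 LNCaP prostate cancer cells (AR T878A) in phenol red-free RPMI1640 with 5% FBS treated with compound at final 10000 nmol/L for 48 h. Cell lysates analysed by Western blot with anti-AR antibody; band quantified by chemiluminescence.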

[5] = tested on: LNCaP-Xeno-IL-6 cells; test: Anti-tumor activity in in vivo model of castration resistant prostate cancer; conditions: castrated male nude mice, oral, every day for 2 weeks
Procedure: From the AR positive human prostate cancer cells LNCaP, castration resistant prostate cancer cells, LNCaP-Xeno-IL-6 cells, were established based on the scientific paper (Clin Cancer Res, 2001 7:2941-8) (in the paper, the cells have been reported as LNCaP-IL-6+ cells) and used for the in vivo test. The LNCaP-Xeno-IL-6 cells were implanted subcutaneously in male nude mice, and the castration treatment was performed when the tumor volume reached about 200 mm^3. After the castration, the vehicle only (0.5% HPMC) or the compound of Examples suspended in the vehicle was orally administered to the mice every day for 2 weeks. The compound of Examples was administered such that there was no difference in an exposure amount between the compounds. After the administration for 2 weeks, the tumor volume of each mouse was recorded and the average tumor volume of the group administered with the evaluation compound relative to the average tumor volume of the group administered only with the vehicle, that is, T/C (%), was calculated based on the following formula. T/C (%)=(Average tumor volume of evaluation compound group)/(Average tumor volume of vehicle administration group)

Row | Compound | IC50 [1] [nM] | GI50 [2] [nM] | Cell proliferation rate (%) [3] [%] | 10 μM AR expression reducing activity [4] | T/C (%) ([5]; daily dose 30 mg/kg/day) | T/C (%) ([5]; daily dose 15 mg/kg/day) | T/C (%) ([5]; daily dose 200 mg/kg/day)
1 | CC(C)(O)c1ccc(Nc2ncnc3c2CCN(c2ccc(C#N)c(C(F)(F)F)c2)C3)nc1 [Example 7, 4-(4-((5-(2-hydroxypropan-2-yl)pyridin-2-yl)amino)-5,6-dihydropyrido[3,4-d]pyrimidin-7(8H)-yl)-2-(trifluoromethyl)benzonitrile] | 160 | 500 | 4.9 | reduced (When the AR expression reducing activity is 50% or more, it is described as “reduced”) | 49 |  | 
2 | CC(C)(O)c1ccc(Nc2ncnc3c2CCN(c2ccc(C#N)c(Cl)c2)C3)nc1 [Example 9, 2-chloro-4-(4-((5-(2-hydroxypropan-2-yl)pyridin-2-yl)amino)-5,6-dihydropyrido[3,4-d]pyrimidin-7 (8H)-yl)benzonitrile] | 250 | 500 | −0.7 | reduced (When the AR expression reducing activity is 50% or more, it is described as “reduced”) |  | 40 | 
3 | N#Cc1ccc(N2CCc3c(ncnc3Nc3ccc(C(=O)NCC(F)(F)F)cn3)C2)cc1C(F)(F)F [Example 11, 6-((7-(4-cyano-3-(trifluoromethyl)phenyl)-5,6,7,8,-tetrahydropyrido[3,4-d]pyrimidin-4-yl)amino)-N-(2,2,2-trifluoroethyl)nicotinamide] | 30 | 380 | 2.9 | reduced (When the AR expression reducing activity is 50% or more, it is described as “reduced”) |  |  | 47
